Data set [1] can be described thus: Induction of H2S release in phosphate buffer at 200 uM using 5,5'-dithiobis-(2-nitrobenzoic acid).
Data set [2] deals with RAW264.7. The following applies: Mus musculus, at 200 µM.
Description: Antiinflammatory activity in mouse RAW264.7 cells assessed as inhibition of LPS-induced PGE2 production at 200 uM preincubated for 1 hr before LPS challenge measured after 24 hrs by ELISA
Data set [3] concerns RAW264.7. To be noted: Mus musculus, at 200 µM. The source holds these as a separate data set.
Description: Antiinflammatory activity in mouse RAW264.7 cells assessed as inhibition of LPS-induced NO production at 200 uM preincubated for 1 hr before LPS challenge measured after 24 hrs by Griess method
The nature of data set [4]: Cytotoxicity against human Jurkat T cells assessed as reduction in cell viability at 200 uM after 24 hrs by tryphan blue assay.

The structures appear in SMILES notation. Active and inactive are the calls of the source. The calls are words filed in the database; no cut-off is given here.

This note sets out measurements from ChEMBL document CHEMBL3751739, “Investigating the generation of hydrogen sulfide from the phosphonamidodithioate slow-release donor GYY4137” (Medchemcomm, 2015).

`COc1ccc(P([O-])(=S)N2CCOCC2)cc1.[K+]` (centres undefined): the Activity result was “Not Active” in data set [1] and “Non-toxic” in data set [4]. Further, the inhibition entry with RAW264.7 [2] and in the data set on RAW264.7 [3] was “inactive” throughout.
